# Measurements published in patent publication US10669242B2 (priority 2016, dated 2020).
# Target: T1, recombinant glucosyltransferase domain of C. difficile Toxin B/TcdB (Clostridioides difficile, UniProt P18177)
# T1 construct: 6-His (C); purchased R&D Systems 6246-GT
# Test: biochemical
# T1 sequence (P18177 1-543): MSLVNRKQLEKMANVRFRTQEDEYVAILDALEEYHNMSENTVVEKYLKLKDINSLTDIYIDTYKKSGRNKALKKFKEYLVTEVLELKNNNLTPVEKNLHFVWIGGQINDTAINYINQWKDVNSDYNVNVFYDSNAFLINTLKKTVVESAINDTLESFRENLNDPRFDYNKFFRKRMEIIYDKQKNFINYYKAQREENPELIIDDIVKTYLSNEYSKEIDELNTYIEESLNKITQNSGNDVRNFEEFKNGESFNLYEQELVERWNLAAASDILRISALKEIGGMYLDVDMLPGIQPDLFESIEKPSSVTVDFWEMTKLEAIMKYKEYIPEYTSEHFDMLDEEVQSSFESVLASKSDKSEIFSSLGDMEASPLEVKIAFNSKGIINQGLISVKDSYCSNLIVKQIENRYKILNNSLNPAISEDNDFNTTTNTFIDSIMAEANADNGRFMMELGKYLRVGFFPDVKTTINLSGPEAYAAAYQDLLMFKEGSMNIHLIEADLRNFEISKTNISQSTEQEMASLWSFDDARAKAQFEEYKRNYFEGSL
row,Compound,IC50
1,"CC1(C)CN(C(=O)c2ccc(CN3C(=O)c4ccc(Cl)cc4NC(=O)[C@H]3Cc3ccccn3)cc2Cl)c2ncc(C(F)(F)F)cc21 [Example 5aw, (R)-8-chloro-4-(3-chloro-4-(3,3-dimethyl-5-(trifluoromethyl)-2,3-dihydro-1H-pyrrolo[2,3-b]pyridine-1-carbonyl)benzyl)-3-(pyridin-2-ylmethyl)-3,4-dihydro-1H-benzo[e][1,4]diazepine-2,5-dione]",< 100 nM
2,"COc1cnc(NC(=O)[C@H]2CC[C@H](CN3C(=O)c4ccc(Cl)cc4NC(=O)[C@H]3Cc3ccccn3)CC2)nc1 [Example 5ax, (1R,4r)-4-(((R)-8-chloro-2,5-dioxo-3-(pyridin-2-ylmethyl)-2,3-dihydro-1H-benzo[e][1,4]diazepin-4(5H)-yl)methyl)-N-(5-methoxypyrimidin-2-yl)cyclohexanecarboxamide]",< 100 nM
3,"O=C(Nc1ncccn1)c1ccc(CN2C(=O)c3ccc(Cl)cc3NC(=O)[C@H]2Cc2cccnc2)cc1 [Example 5b, (R)-4-((8-chloro-2,5-dioxo-3-(pyridin-3-ylmethyl)-2,3-dihydro-1H-benzo[e][1,4]diazepin-4(5H)-yl)methyl)-N-(pyrimidin-2-yl)benzamide]",< 100 nM
4,"O=C(Nc1cnccn1)c1ccc(CN2C(=O)c3ccc(Cl)cc3NC(=O)[C@H]2Cc2cccnc2)cc1 [Example 5c, (R)-4-((8-chloro-2,5-dioxo-3-(pyridin-3-ylmethyl)-2,3-dihydro-1H-benzo[e][1,4]diazepin-4(5H)-yl)methyl)-N-(pyrazin-2-yl)benzamide]",< 100 nM
5,"O=C(Nc1ccc(Cl)cn1)c1ccc(CN2C(=O)c3ccc(Cl)cc3NC(=O)[C@H]2Cc2cccnc2)cc1 [Example 5d, (R)-4-((8-chloro-2,5-dioxo-3-(pyridin-3-ylmethyl)-2,3-dihydro-1H-benzo[e][1,4]diazepin-4(5H)-yl)methyl)-N-(5-chloropyridin-2-yl)benzamide]",< 100 nM
6,"O=C(Nc1ncccc1Cl)c1ccc(CN2C(=O)c3ccc(Cl)cc3NC(=O)[C@H]2Cc2cccnc2)cc1 [Example 5e, (R)-4-((8-chloro-2,5-dioxo-3-(pyridin-3-ylmethyl)-2,3-dihydro-1H-benzo[e][1,4]diazepin-4(5H)-yl)methyl)-N-(3-chloropyridin-2-yl)benzamide]",100 to 999 nM
7,"O=C(Nc1ccc(C(F)(F)F)cn1)c1ccc(CN2C(=O)c3ccc(Cl)cc3NC(=O)[C@H]2Cc2ccccn2)cc1-c1ccc2c(c1)OCO2 [Example 5f, (R)-2-(benzo[d][1,3]dioxol-5-yl)-4-((8-chloro-2,5-dioxo-3-(pyridin-2-ylmethyl)-2,3-dihydro-1H-benzo[e][1,4]diazepin-4(5H)-yl)methyl)-N-(5-(trifluoromethyl)pyridin-2-yl)benzamide]",100 to 999 nM
8,"COc1ccc(NC(=O)c2ccc(CN3C(=O)c4ccc(Cl)cc4NC(=O)[C@H]3Cc3cccnc3)cc2)nc1 [Example 5g, (R)-4-((8-chloro-2,5-dioxo-3-(pyridin-3-ylmethyl)-2,3-dihydro-1H-benzo[e][1,4]diazepin-4(5H)-yl)methyl)-N-(5-methoxypyridin-2-yl)benzamide]",< 100 nM
9,"Cc1cnc(NC(=O)c2ccc(CN3C(=O)c4ccc(Cl)cc4NC(=O)[C@H]3Cc3cccnc3)cc2)nc1 [Example 5h, (R)-4-((8-chloro-2,5-dioxo-3-(pyridin-3-ylmethyl)-2,3-dihydro-1H-benzo[e][1,4]diazepin-4(5H)-yl)methyl)-N-(5-methylpyrimidin-2-yl)benzamide]",< 100 nM
10,"Cc1ccnc(NC(=O)c2ccc(CN3C(=O)c4ccc(Cl)cc4NC(=O)[C@H]3Cc3cccnc3)cc2)n1 [Example 5i, (R)-4-((8-chloro-2,5-dioxo-3-(pyridin-3-ylmethyl)-2,3-dihydro-1H-benzo[e][1,4]diazepin-4(5H)-yl)methyl)-N-(4-methylpyrimidin-2-yl)benzamide]",< 100 nM
11,COc1cc(NC(=O)c2ccc(CN3C(=O)c4ccc(Cl)cc4NC(=O)[C@H]3Cc3cccnc3)cc2)ncn1 [Example 5j],< 100 nM
12,"CCc1ccc(NC(=O)c2ccc(CN3C(=O)c4ccc(Cl)cc4NC(=O)[C@H]3Cc3cccnc3)cc2)nc1 [Example 5k, (R)-4-((8-chloro-2,5-dioxo-3-(pyridin-3-ylmethyl)-2,3-dihydro-1H-benzo[e][1,4]diazepin-4(5H)-yl)methyl)-N-(5-ethylpyridin-2-yl)benzamide]",< 100 nM
13,"Cc1cnc(NC(=O)c2ccc(CN3C(=O)c4ccc(Cl)cc4NC(=O)[C@H]3Cc3ccccn3)cc2)nc1 [Example 5l, (R)-4-((8-chloro-2,5-dioxo-3-(pyridin-2-ylmethyl)-2,3-dihydro-1H-benzo[e][1,4]diazepin-4(5H)-yl)methyl)-N-(5-methylpyrimidin-2-yl)benzamide]",< 100 nM
14,"COc1cnc(NC(=O)c2ccc(CN3C(=O)c4ccc(Cl)cc4NC(=O)[C@H]3Cc3cccnc3)cc2)nc1 [Example 5m, (R)-4-((8-chloro-2,5-dioxo-3-(pyridin-3-ylmethyl)-2,3-dihydro-1H-benzo[e][1,4]diazepin-4(5H)-yl)methyl)-N-(5-methoxypyrimidin-2-yl)benzamide]",< 100 nM
15,"C[C@@H]1C(=O)Nc2cc(Cl)ccc2C(=O)N1Cc1ccc(C(=O)Nc2ncc3ccccc3n2)cc1 [Example 5n, (R)-4-((8-chloro-3-methyl-2,5-dioxo-2,3-dihydro-1H-benzo[e][1,4]diazepin-4(5H)-yl)methyl)-N-(quinazolin-2-yl)benzamide]",100 to 999 nM
16,"Cc1cncc(NC(=O)c2ccc(CN3C(=O)c4ccc(Cl)cc4NC(=O)[C@H]3C)cc2)n1 [Example 5o, (R)-4-((8-chloro-3-methyl-2,5-dioxo-2,3-dihydro-1H-benzo[e][1,4]diazepin-4(5H)-yl)methyl)-N-(6-methylpyrazin-2-yl)benzamide]",100 to 999 nM
17,"C[C@@H]1C(=O)Nc2cc(Cl)ccc2C(=O)N1Cc1ccc(C(=O)Nc2nc3ccccc3[nH]2)cc1 [Example 5p, (R)-N-(1H-benzo[d]imidazol-2-yl)-4-((8-chloro-3-methyl-2,5-dioxo-2,3-dihydro-1H-benzo[e][1,4]diazepin-4(5H)-yl)methyl)benzamide]",1000 to 10000 nM
18,"O=C(Nc1ccc(C(F)(F)F)cn1)c1ccc(CN2C(=O)c3ccc(Cl)cc3NC(=O)[C@H]2Cc2ccccn2)cc1 [Example 5q, (R)-4-((8-chloro-2,5-dioxo-3-(pyridin-2-ylmethyl)-2,3-dihydro-1H-benzo[e][1,4]diazepin-4(5H)-yl)methyl)-N-(5-(trifluoromethyl)pyridin-2-yl)benzamide]",< 100 nM
19,"COc1cnc(NC(=O)c2ccc(CN3C(=O)c4ccc(Cl)cc4NC(=O)[C@H]3Cc3ccccn3)s2)nc1 [Example 5r, (R)-5-((8-chloro-2,5-dioxo-3-(pyridin-2-ylmethyl)-2,3-dihydro-1H-benzo[e][1,4]diazepin-4(5H)-yl)methyl)-N-(5-methoxypyrimidin-2-yl)thiophene-2-carboxamide]",100 to 999 nM
20,"Cc1cnc(NC(=O)c2ccc(CN3C(=O)c4ccc(Cl)cc4NC(=O)[C@H]3Cc3ccccn3)s2)nc1 [Example 5s, (R)-5-((8-chloro-2,5-dioxo-3-(pyridin-2-ylmethyl)-2,3-dihydro-1H-benzo[e][1,4]diazepin-4(5H)-yl)methyl)-N-(5-methylpyrimidin-2-yl)thiophene-2-carboxamide]",100 to 999 nM
21,"Cc1cnc(NC(=O)c2ccc(CN3C(=O)c4ccc(Cl)cc4NC(=O)[C@H]3Cc3ccccn3)cc2)cn1 [Example 5t, (R)-4-((8-chloro-2,5-dioxo-3-(pyridin-2-ylmethyl)-2,3-dihydro-1H-benzo[e][1,4]diazepin-4(5H)-yl)methyl)-N-(5-methylpyrazin-2-yl)benzamide]",< 100 nM
22,"O=C(Nc1cnccn1)c1ccc(CN2C(=O)c3ccc(Cl)cc3NC(=O)[C@H]2Cc2ccccn2)cc1 [Example 5u, (R)-4-((8-chloro-2,5-dioxo-3-(pyridin-2-ylmethyl)-2,3-dihydro-1H-benzo[e][1,4]diazepin-4(5H)-yl)methyl)-N-(pyrazin-2-yl)benzamide]",< 100 nM
23,"COc1cnc(NC(=O)c2ccc(CN3C(=O)c4ccc(Cl)cc4NC(=O)[C@H]3Cc3ccccn3)cc2)cn1 [Example 5v, (R)-4-((8-chloro-2,5-dioxo-3-(pyridin-2-ylmethyl)-2,3-dihydro-1H-benzo[e][1,4]diazepin-4(5H)-yl)methyl)-N-(5-methoxypyrazin-2-yl)benzamide]",< 100 nM
24,"COc1ccc(NC(=O)c2ccc(CN3C(=O)c4ccc(Cl)cc4NC(=O)C3Cc3cnccn3)cc2)nc1 (stereo not shown) [Example 5w, 4-((8-chloro-2,5-dioxo-3-(pyrazin-2-ylmethyl)-2,3-dihydro-1H-benzo[e][1,4]diazepin-4(5H)-yl)methyl)-N-(5-methoxypyridin-2-yl)benzamide]",< 100 nM
25,"Cc1ccc(NC(=O)c2ccc(CN3C(=O)c4ccc(Cl)cc4NC(=O)C3Cc3cnccn3)cc2)nc1 (stereo not shown) [Example 5x, 4-((8-chloro-2,5-dioxo-3-(pyrazin-2-ylmethyl)-2,3-dihydro-1H-benzo[e][1,4]diazepin-4(5H)-yl)methyl)-N-(5-methylpyridin-2-yl)benzamide]",< 100 nM
26,"COc1cnc(NC(=O)c2ccc(CN3C(=O)c4ccc(Cl)cc4NC(=O)[C@H]3Cc3cnccn3)cc2)nc1 [Example 5y, 4-((8-chloro-2,5-dioxo-3-(pyrazin-2-ylmethyl)-2,3-dihydro-1H-benzo[e][1,4]diazepin-4(5H)-yl)methyl)-N-(5-methoxypyrimidin-2-yl)benzamide]",< 100 nM
27,"Cc1cnc(NC(=O)c2ccc(CN3C(=O)c4ccc(Cl)cc4NC(=O)[C@H]3Cc3cnccn3)cc2)nc1 [Example 5z, 4-((8-chloro-2,5-dioxo-3-(pyrazin-2-ylmethyl)-2,3-dihydro-1H-benzo[e][1,4]diazepin-4(5H)-yl)methyl)-N-(5-methylpyrimidin-2-yl)benzamide]",< 100 nM
28,"O=C(Nc1ccccn1)c1ccc(CN2C(=O)c3ccc(Cl)cc3NC(=O)[C@H]2Cc2ccccn2)cc1F [Example 6b, (R)-4-((8-chloro-2,5-dioxo-3-(pyridin-2-ylmethyl)-2,3-dihydro-1H-benzo[e][1,4]diazepin-4(5H)-yl)methyl)-2-fluoro-N-(pyridin-2-yl)benzamide]",< 100 nM
